Measurements taken from the SangsterLogP compilation.

How the values were obtained:
[1] = method code SF-AS, from Korenman, I.; Nefedova, E.; Dyukova, I. (1977). Extraction of picramic acid. Int J Clin Pharmacol Ther Toxicol, 51(5)734-735.; conditions: pH 7.4
[2] = method code SF, from DOI: 10.1080/09553009014551091, PMID: 1970998; conditions: pH 7.4
[3] = method code SF-AS, from DOI: 10.1016/s0006-3495(76)85671-8, PMID: 1247644; conditions: pH 8.0
[4] = method code SF-AS, from DOI: 10.1111/j.2042-7158.1989.tb06484.x, PMID: 2570835
[5] = not given; remark: listed apart in the source
[6] = method code SF, from DOI: 10.1016/0043-1354(79)90201-x
[7] = method code SF-AS, from DOI: 10.1021/jm00304a030, PMID: 5793164; conditions: pH 7.4
[8] = method code SF-AS, from DOI: 10.1080/09553007214550551, PMID: 4537457
[9] = method code SF-GLC, from Park, Y.; Park, S. (2000). Determination and prediction of octanol/water partition coefficients and air-water partition coefficients for environmental toxic chemicals. 11(7)773-779.
[10] = method code SF, from DOI: 10.1007/bf00253009, PMID: 7273265; conditions: pH 7.4
[11] = not given; remark: listed apart in the source
[12] = method code SF-ESR, from DOI: 10.1111/1523-1747.ep12319780, PMID: 2551971; conditions: pH 7.0
[13] = method code SF-GLC, from DOI: 10.1002/jps.2600641120, PMID: 1195116
[14] = not given; remark: listed apart in the source
[15] = method code SF-RC, from DOI: 10.1002/qsar.19880070404; conditions: pH 0.0
[16] = from Tehrany, E.A.; Desobry, S. (2005). Comparison between the different calculation methods of partition coefficient of aroma compounds with a difference chemical classes in octanol/water system. …
[17] = method code SF-AS, from DOI: 10.1016/s0022-3565(25)24763-2, PMID: 2019981; conditions: pH 7.4
[18] = pH 1.0
[19] = not given; remark: listed apart in the source
[20] = not given; remark: listed apart in the source
[21] = method code SF-AS, from DOI: 10.1016/0006-2952(74)90620-0, PMID: 4822742; conditions: pH 7.4
[22] = method code SF-AS, from DOI: 10.1016/0006-2952(65)90227-3, PMID: 14322976; conditions: pH 6.8
[23] = not given; remark: listed apart in the source
[24] = from Büchel, H.; Draber, W.; Trebst, A.; Pistorius, E. (1966). Inhibition of photosynthetic reactions in isolated chloroplasts by benzimidazole-type herbicides and their structure-activity relation, …; conditions: pH 7.0
[25] = method code SF-AS, from Halmekoski, J.; Hannikainen, H. (1964). Rm values of hydroxy-substituted benzoic acids and partition coefficients of the acids between water and aliphatic alcohols. Suomen Kemist. B, 37, 221-226.
[26] = method code SF-AS, from DOI: 10.1016/s0045-6535(98)00368-3
[27] = method code SF, from Kruglik, P.; Leschev, M.; Rakhman'ko, M.; Bubel, N.; Asratyan, V. (1991). Extraction of 1,2,4-triazole and its derivatives by organic solvents. 64(8)1721-1724.
[28] = method code SF, from DOI: 10.1021/jm00307a001, PMID: 5637185
[29] = method code SF-AS, from DOI: 10.1093/ajhp/38.9.1308, PMID: 7282713; conditions: pH 7.4
[30] = method code SF-HPLC, from DOI: 10.1002/jps.2600810507, PMID: 1403673
[31] = method code SF-HPLC, from DOI: 10.1002/ps.2780370106; conditions: pH 0.0
[32] = method code SF-CR+AS, from Korenman, I.; Lineva, S.; Tishchenko, M. (1979). The influence of substituents on the extraction of phenols. Russ. J. Phys. Chem., 53(11)1678-1679.; conditions: pH 2.5
[33] = method code SF, from DOI: 10.1248/yakushi1947.99.3_235; conditions: pH 11.0
[34] = method code SF-AS, from DOI: 10.1016/0022-1902(68)80266-0; conditions: pH 4.0
[35] = method code SF, from DOI: 10.1021/js9601804, PMID: 9344176; conditions: pH 8.0
[36] = not given; remark: listed apart in the source
[37] = method code SF, from DOI: 10.1016/j.ejps.2014.11.002, PMID: 25447745; conditions: pH 7.4
[38] = method code SF-RC, from DOI: 10.1111/j.2042-7158.1987.tb03173.x, PMID: 2886623
[39] = method code SF-AS, from Korenman, I.; Lineva, S.; Gezikova, N. (1978). Extraction of naphthol-sulfonic acids from aqueous solution. Zh. Prikl. Khim., 51(4)869-871.
[40] = method code SF, from PMID: 8265709; conditions: pH 7.4
[41] = method code SF, from DOI: 10.1248/yakushi1947.93.11_1452, PMID: 4273378
[42] = pH 5.6
[43] = method code SF-GLC,RC, from DOI: 10.1016/0048-3575(73)90050-3
[44] = not given; remark: listed apart in the source
[45] = method code SF-CR+AS, from Korenman, Y. (1973). Extraction of guaiacol from aqueous solutions. Zh. Prikl. Khim., 46(6)1391-1394.; conditions: pH 2.0
[46] = not given; remark: listed apart in the source
[47] = not given; remark: listed apart in the source
[48] = method code SF-GLC, from DOI: 10.1016/s0021-9673(00)92516-0

## CC(C)c1cnc([N+](=O)[O-])n1C
[1]
  logD: 1.09

## O=[N+]([O-])c1nccn1COC(CO)CO
[2]
  logD: -1.03

## Cc1nc2c(Cl)c(Cl)c(Cl)c(Cl)c2[nH]1
[3]
  logD: 2.83

## O=c1[nH][nH]c(=O)c2ccccc12
[4]
  logP: 0.11

## CC(C)(C)OCCO
other
  logP: 0.39

## O=C(O)c1ccccc1F
[5]
  logP: 1.63

## NC(=O)COCc1ccco1
[6]
  logP: -0.11

## Brc1ccc2[nH]ccc2c1
[7]
  logD: 3

## CC(=O)c1ccc(Cl)cc1
[8]
  logP: 2.35

## CC(=O)OCCC(C)C
[9]
  logP: 2.55

## O=C(Cn1ccnc1[N+](=O)[O-])N(CO)CO
[10]
  logD: -1.59

## COc1nc(C(Cl)(Cl)Cl)c(Cl)c(OC)c1Cl
[11]
  logP: 5.48

## CC1(C)COC(C)(C)N1O
[12]
  logD: 0.48

## C1CCc2nnnn2CC1
[13]
  logP: 0.14

## CCC1C(=O)NC(=O)N(C)C1=O (centres undefined)
[14]
  logP: 0.15

## O=C(O)Cc1ccccc1I
[15]
  logD: 2.33

## CCCCCC=O
[16]
  logP: 1.85

## CCn1cccc(O)c1=O
[17]
  logD: 0.08

## O=C(O)Cc1c(Cl)ccc(Cl)c1Cl
[18]
  logD: 3.2

## Cc1cccc(O)c1
[19]
  logP: 2.01

## O=C1NC(=O)c2ccccc21
[20]
  logP: 1.04

## O=S1(=O)N=CNc2ccccc21
[21]
  logD: 0.18

## O=c1ccccc(O)c1
[22]
  logD: 0.81

## CO[C@@H]([C@H](O)[C@H](O)CO)[C@@H](O)C=O
[23]
  logP: -3

## Clc1nc2c(Cl)c(Cl)c(Cl)c(Cl)c2[nH]1
[24]
  logD: 4.53

## O=C(O)c1cccc(O)c1O
[25]
  logP: 1.2

## COc1cc(OC)ncn1
[26]
  logP: 0.96

## CC(C)CCn1cnc([N+](=O)[O-])n1
[27]
  logP: 1.26

## C=CC(CC)OC(N)=O (centres undefined)
[28]
  logP: 1.09

## Cc1ncsc1CCCl
[29]
  logD: 2.12

## O=C(O)c1ccc(C(=O)O)cc1
[30]
  logP: 1.68

## Cc1c(F)c(F)c(C(=O)O)c(F)c1F
[31]
  logD: 3.15

## Cc1cc(N=O)ccc1O
[32]
  logD: 1.71

## OCCC1CCCCN1 (centres undefined)
[33]
  logD: 0.11

## O=C(CC(=O)C(F)(F)F)c1cccs1
[34]
  logD: 1.46

## O=C1COc2ccccc2N1
[35]
  logD: 1.31

## CCC(CC)C(=O)NC(N)=O
[36]
  logP: 0.91

## O=[N+]([O-])O[C@H]1CO[C@H]2[C@@H]1OC[C@H]2O[N+](=O)[O-]
[37]
  logD: 1.2

## OC[C@@H](O)[C@@H](O)[C@H](O)[C@H](O)CO (racemic)
[38]
  logP: -2.47

## CC1=C(C(N)=O)SCCO1
[39]
  logP: -0.22

## Cn1c(=O)c2[nH]cnc2n(C)c1=O
[40]
  logD: -0.18

## CNC(=O)c1cccnc1
[41]
  logP: 0

## NC(=O)c1ccc([N+](=O)[O-])cc1
[42]
  logD: 0.82

## ClCc1ccccc1
[43]
  logP: 2.3

## O=C(Cn1ccnc1[N+](=O)[O-])NCC(F)(F)C(F)(F)F
[44]
  logP: 0.76

## COc1ccccc1O
[45]
  logD: 1.35

## O=S(=O)(CS(=O)(=O)C(F)(F)F)c1ccc(Cl)c(Cl)c1
[46]
  logP: 1.7

## CCCCCCC
[47]
  logP: 4.48

## ClCc1ccc(Cl)cc1Cl
[48]
  logP: 3.82
